Reference: ChEMBL document CHEMBL1125711, “Flavins as potential antimalarials. 2. 3-Methyl-10-(substituted-phenyl) flavins” (J Med Chem, 1991)

Experiments:
Mus musculus [1] = assay: Antimalarial activity was evaluated against Plasmodium vinckei vinckei V52 after intraperitoneal administration at dose 10 mg/kg; assay type: functional
Mus musculus [2] = assay: Increase in mean survival days was determined in mice after ip administration of 50 mg/kg; assay type: functional; conditions: route intraperitoneal
Mus musculus [3] = assay: Antimalarial activity was evaluated against Plasmodium vinckei V52 after intraperitoneal administration at dose 60 mg/kg; assay type: functional
Mus musculus [4] = assay: Antimalarial activity was evaluated against Plasmodium vinckei V52 after intraperitoneal administration at dose 20 mg/kg; assay type: functional
Mus musculus [5] = assay: Antimalarial activity was evaluated against Plasmodium vinckei vinckei V52 after intraperitoneal administration at dose 70 mg/kg; assay type: functional
Mus musculus [6] = assay: Antimalarial activity was evaluated against Plasmodium vinckei V52 after intraperitoneal administration at dose 30 mg/kg; assay type: functional
Mus musculus [7] = assay: Increase in mean survival days was determined in mice after ip administration of 20 mg/kg; assay type: functional; conditions: route intraperitoneal
Mus musculus [8] = assay: Increase in mean survival days was determined in mice after ip administration of 60 mg/kg; assay type: functional; conditions: route intraperitoneal
Mus musculus [9] = assay: Increase in mean survival days was determined in mice after ip administration of 30 mg/kg; assay type: functional; conditions: route intraperitoneal
Mus musculus [10] = assay: Antimalarial activity was evaluated against Plasmodium vinckei vinckei V52 after intraperitoneal administration at dose 50 mg/kg; assay type: functional
Mus musculus [11] = species: Mus musculus; assay: Effective dose required to obtain a parasitaemia of 40% 48 hours after treatment in mice.; assay type: functional
Mus musculus [12] = assay: Increase in mean survival days was determined in mice after ip administration of 10 mg/kg; assay type: functional; conditions: route intraperitoneal
Mus musculus [13] = assay: Antimalarial activity was evaluated against Plasmodium vinckei vinckei V52 after intraperitoneal administration at dose 25 mg/kg; assay type: functional
Mus musculus [14] = assay: (§1) Increase in mean survival days was determined in mice after ip administration of 70 mg/kg; toxic; assay type: functional; conditions: route intraperitoneal
Mus musculus [15] = assay: Antimalarial activity was evaluated against Plasmodium vinckei vinckei V52 after intraperitoneal administration at dose 60 mg/kg; assay type: functional
Mus musculus [16] = assay: Antimalarial activity was evaluated against Plasmodium vinckei vinckei V52 after intraperitoneal administration at dose 40 mg/kg; assay type: functional
[17] = test system: Plasmodium vinckei vinckei; assay: Antimalarial activity against Plasmodium vinckei V52 after 20 mg/kg intraperitoneal dose; assay type: functional
Mus musculus [18] = assay: Antimalarial activity was evaluated against Plasmodium vinckei V52 after intraperitoneal administration at dose 15 mg/kg; assay type: functional
[19] = test system: Plasmodium vinckei vinckei; assay: Antimalarial activity against Plasmodium vinckei V52 on 10 mg/kg intraperitoneal dose; assay type: functional
Mus musculus [20] = species: Mus musculus; assay: Effective dose required to obtain a parasitaemia of 40% 48 hours after treatment in mice; assay type: functional
[21] = test system: Plasmodium vinckei vinckei; assay: Antimalarial activity against Plasmodium vinckei V52 on 30 mg/kg intraperitoneal dose; assay type: functional
Mus musculus [22] = assay: Antimalarial activity was evaluated against Plasmodium vinckei V52 after intraperitoneal administration at dose 70 mg/kg; assay type: functional
Mus musculus [23] = assay: Increase in mean survival days was determined in mice after ip administration of 60 mg/kg; toxic; assay type: functional; conditions: route intraperitoneal
Mus musculus [24] = assay: Increase in mean survival days was determined in mice after ip administration of 15 mg/kg; assay type: functional; conditions: route intraperitoneal
Mus musculus [25] = assay: Antimalarial activity was evaluated against Plasmodium vinckei vinckei V52 after intraperitoneal administration at dose 30 mg/kg; assay type: functional
[26] = test system: Plasmodium vinckei vinckei; assay: Antimalarial activity against Plasmodium vinckei V52 on 70 mg/kg intraperitoneal dose; assay type: functional
Mus musculus [27] = assay: Antimalarial activity was evaluated against Plasmodium vinckei V52 after intraperitoneal administration at dose 50 mg/kg; assay type: functional
[28] = test system: Plasmodium vinckei vinckei; assay: Increase in mean survival days of Plasmodium inoculated mice (Mus musculus) after 70 mg/Kg intraperitoneal dose; assay type: functional
Mus musculus [29] = assay: Increase in mean survival days was determined in mice after ip administration of 40 mg/kg; assay type: functional; conditions: route intraperitoneal
Mus musculus [30] = assay: Antimalarial activity was evaluated against Plasmodium vinckei V52 after intraperitoneal administration at dose 40 mg/kg; assay type: functional
Mus musculus [31] = assay: Increase in mean survival days was determined in mice after ip administration of 50 mg/kg; toxic; assay type: functional; conditions: route intraperitoneal
Mus musculus [32] = assay: as §1; assay type: ADME, organism-based; design: dose 70 mg/kg, route intraperitoneal; conditions: in vivo
Mus musculus [33] = assay: Antimalarial activity was evaluated against Plasmodium vinckei V52 after intraperitoneal administration at dose 10 mg/kg; assay type: functional
Mus musculus [34] = assay: Antimalarial activity was evaluated against Plasmodium vinckei vinckeii V52 after intraperitoneal administration at dose 50 mg/kg; assay type: functional
Mus musculus [35] = assay: Antimalarial activity was evaluated against Plasmodium vinckei vinckeii V52 after intraperitoneal administration at dose 15 mg/kg; assay type: functional
Mus musculus [36] = assay: Antimalarial activity was evaluated against Plasmodium vinckei vinckeii V52 after intraperitoneal administration at dose 60 mg/kg; assay type: functional
Mus musculus [37] = assay: Antimalarial activity was evaluated against Plasmodium vinckei vinckeii V52 after intraperitoneal administration at dose 40 mg/kg; assay type: functional

How did the Cured (Mus musculus [1]) turn out when `Cc1ccc(-n2c3nc(=O)n(C)c(=O)c-3nc3ccccc32)cc1C` was run?
Its Cured is 0%.

What about the Mean survival days (Mus musculus [2]) of the same molecule?
The Mean survival days was 0.3 days.

What about the Cured (Mus musculus [3]) of the same molecule?
Its Cured is 60%.

What about the Cured (Mus musculus [4]) of the same molecule?
Its Cured is 0%.

And the Cured (Mus musculus [5])?
The Cured was 100%.

And the Cured (Mus musculus [6])?
Its Cured is 0%.

And the Mean survival days (Mus musculus [7])?
The Mean survival days was 0.2 days.

What about the Mean survival days (Mus musculus [8]) of the same molecule?
The Mean survival days was 0.5 days.

And the Mean survival days (Mus musculus [9])?
The Mean survival days was 0.8 days.

And the Cured (Mus musculus [10])?
Its Cured is 20%.

And the ED40 (Mus musculus [11])?
The ED40 was 210 µmol/kg.

And the Mean survival days (Mus musculus [12])?
The Mean survival days was 0.3 days.

How did the Cured (Mus musculus [13]) turn out when `Cn1c(=O)nc2n(-c3cccc(C(F)(F)F)c3)c3ccccc3nc-2c1=O` was run?
The Cured was 100%.

And the Mean survival days (Mus musculus [14])?
The Mean survival days was 7.5 days.

What about the Cured (Mus musculus [15]) of the same molecule?
Its Cured is 40%.

What about the Cured (Mus musculus [16]) of the same molecule?
Its Cured is 100%.

And the Cured [17]?
The Cured was 100%.

What about the Cured (Mus musculus [18]) of the same molecule?
Its Cured is 100%.

And the Cured [19]?
The Cured was 33%.

And the Mean survival days (Mus musculus [8])?
The Mean survival days was 10 days.

What about the ED40 (Mus musculus [20]) of the same molecule?
The ED40 was 79.3 µmol/kg.

And the Cured [21]?
Its Cured is 100%.

And the Cured (Mus musculus [22])?
The Cured was 0%.

And the Cured (Mus musculus [10])?
The Cured was 100%.

And the Mean survival days (Mus musculus [12])?
Its Mean survival days is 1.4 days.

Which results are given for `Cc1cc(C)cc(-n2c3nc(=O)n(C)c(=O)c-3nc3ccccc32)c1`?
Cured (Mus musculus [13]): 100%; Mean survival days (Mus musculus [2]): 5.5 days; Mean survival days (Mus musculus [23]): 0.4 days; Cured (Mus musculus [15]): 0%; Cured (Mus musculus [16]): 100%; Cured (Mus musculus [4]): 100%; Cured (Mus musculus [18]): 60%; Cured [19]: 0%; Mean survival days (Mus musculus [24]): 1 days; Cured (Mus musculus [25]): 100%; ED40 (Mus musculus [20]): 105 µmol/kg; Cured (Mus musculus [10]): 60%; Mean survival days (Mus musculus [12]): 0 days

Which Mean survival days (Mus musculus [2]) does the source give for `Cn1c(=O)nc2n(-c3ccccc3)c3ccccc3nc-2c1=O` here?
Its Mean survival days is 0.3 days.

What about the Cured (Mus musculus [3]) of the same molecule?
The Cured was 20%.

And the Cured [26]?
Its Cured is 60%.

What about the Cured (Mus musculus [27]) of the same molecule?
Its Cured is 0%.

And the Cured [19]?
The Cured was 0%.

What about the Mean survival days [28] of the same molecule?
Its Mean survival days is 1 days.

And the Mean survival days (Mus musculus [8])?
Its Mean survival days is 0.5 days.

And the Mean survival days (Mus musculus [9])?
Its Mean survival days is 0 days.

What about the Cured [21] of the same molecule?
Its Cured is 0%.

And the ED40 (Mus musculus [11])?
Its ED40 is 248 nM/kg.

What about the Mean survival days (Mus musculus [12]) of the same molecule?
The Mean survival days was 0 days.

Which results are given for `Cc1cc(-n2c3nc(=O)n(C)c(=O)c-3nc3ccccc32)ccc1Cl`?
Mean survival days (Mus musculus [29]): 0.3 days; Cured (Mus musculus [30]): 0%; Mean survival days (Mus musculus [2]): 0.3 days; Cured (Mus musculus [3]): 100%; Cured [26]: 80%; Cured [17]: 0%; Cured (Mus musculus [27]): 25%; Cured [19]: 0%; Mean survival days [28]: 2 days; Mean survival days (Mus musculus [9]): 0 days; ED40 (Mus musculus [20]): 182 µmol/kg; Mean survival days (Mus musculus [12]): 0 days

For `Cn1c(=O)nc2n(-c3ccc(S(C)(=O)=O)cc3)c3ccccc3nc-2c1=O`, which Mean survival days (Mus musculus [29]) is on record?
Its Mean survival days is -0.5 days.

And the Cured (Mus musculus [30])?
The Cured was 0%.

What about the Mean survival days (Mus musculus [31]) of the same molecule?
The Mean survival days was -0.8 days.

What about the Mean survival days (Mus musculus [14]) of the same molecule?
The Mean survival days was -2 days.

And the Cured [26]?
Its Cured is 0%.

What about the Cured (Mus musculus [27]) of the same molecule?
The Cured was 0%.

And the Cured [19]?
The Cured was 0%.

And the Mean survival days (Mus musculus [9])?
Its Mean survival days is 0.2 days.

And the Cured [21]?
Its Cured is 0%.

And the Mean survival days (Mus musculus [12])?
Its Mean survival days is 0 days.

`COc1ccc(-n2c3nc(=O)n(C)c(=O)c-3nc3ccccc32)cc1` was tested. Which Mean survival days (Mus musculus [29]) did it give?
The Mean survival days was 1 days.

What about the Cured (Mus musculus [30]) of the same molecule?
Its Cured is 20%.

What about the Mean survival days (Mus musculus [2]) of the same molecule?
The Mean survival days was 2 days.

What about the Cured (Mus musculus [3]) of the same molecule?
The Cured was 80%.

What about the Cured [26] of the same molecule?
Its Cured is 60%.

And the Cured [17]?
Its Cured is 0%.

What about the Cured (Mus musculus [27]) of the same molecule?
Its Cured is 80%.

What about the Cured [19] of the same molecule?
Its Cured is 0%.

What about the Mean survival days (Mus musculus [8]) of the same molecule?
Its Mean survival days is 1 days.

And the Mean survival days (Mus musculus [9])?
Its Mean survival days is 0.4 days.

What about the ED40 (Mus musculus [20]) of the same molecule?
The ED40 was 138 µmol/kg.

And the Mean survival days (Mus musculus [32])?
The Mean survival days was -0.5 days.

What about the Mean survival days (Mus musculus [12]) of the same molecule?
The Mean survival days was 0 days.

How did the Mean survival days (Mus musculus [29]) turn out when `Cn1c(=O)nc2n(-c3cccc(Br)c3)c3ccccc3nc-2c1=O` was run?
The Mean survival days was 0 days.

What about the Mean survival days (Mus musculus [2]) of the same molecule?
Its Mean survival days is 1 days.

What about the Cured (Mus musculus [33]) of the same molecule?
Its Cured is 0%.

And the Cured (Mus musculus [34])?
The Cured was 80%.

And the Mean survival days (Mus musculus [24])?
Its Mean survival days is 0 days.

And the Cured (Mus musculus [35])?
The Cured was 0%.

And the Cured (Mus musculus [6])?
Its Cured is 0%.

And the Mean survival days (Mus musculus [8])?
Its Mean survival days is -1 days.

And the Cured (Mus musculus [36])?
The Cured was 80%.

What about the Mean survival days (Mus musculus [9]) of the same molecule?
Its Mean survival days is 0 days.

And the Cured (Mus musculus [22])?
The Cured was 100%.

What about the Cured (Mus musculus [37]) of the same molecule?
The Cured was 0%.

And the Mean survival days (Mus musculus [12])?
The Mean survival days was 0 days.

With `COc1cc(OC)cc(-n2c3nc(=O)n(C)c(=O)c-3nc3ccccc32)c1` as the molecule, how does the Mean survival days (Mus musculus [2]) read?
Its Mean survival days is 0 days.

What about the Cured [26] of the same molecule?
Its Cured is 100%.

What about the Cured (Mus musculus [15]) of the same molecule?
The Cured was 20%.

What about the Cured [17] of the same molecule?
The Cured was 0%.

And the Cured [19]?
Its Cured is 0%.

What about the Mean survival days (Mus musculus [8]) of the same molecule?
Its Mean survival days is 3 days.

And the Mean survival days (Mus musculus [9])?
The Mean survival days was 0 days.

What about the ED40 (Mus musculus [20]) of the same molecule?
The ED40 was 219 µmol/kg.

What about the Cured (Mus musculus [10]) of the same molecule?
Its Cured is 0%.

What about the Mean survival days (Mus musculus [12]) of the same molecule?
Its Mean survival days is 0 days.

Which results are given for `Cn1c(=O)nc2n(-c3cc(C(F)(F)F)cc(C(F)(F)F)c3)c3ccccc3nc-2c1=O`?
Mean survival days (Mus musculus [2]): 0 days; Cured (Mus musculus [33]): 0%; Cured (Mus musculus [4]): 0%; Cured (Mus musculus [34]): 0%; Mean survival days [28]: 0 days; Cured (Mus musculus [6]): 0%; Mean survival days (Mus musculus [7]): 0 days; Mean survival days (Mus musculus [9]): 0 days; Cured (Mus musculus [22]): 0%; Mean survival days (Mus musculus [12]): 0 days
